Measurements as given in patent US5981558A, “DC107 derivatives” (Kyowa Hakko Kogyo Co., Ltd., priority 1996, dated 1999).
pIC50: −log10 of the molar value. Like-named read-outs stand apart in the source and are kept apart here.

What was measured:
[1] = tested on: Sarcoma 180 mouse solid tumor; assay: Antitumor activity against Sarcoma 180 mouse solid tumor; type: in vivo, mouse (ddY); settings: Sarcoma-180, iv, 168 h
Description: To a ddY mouse were intraperitoneally transplanted 5×10^6 sarcoma 180 cells. On the seventh day from the transplant, the cells were collected from the ascites, washed once with sterilized physiological saline, and then diluted with sterilized physiological saline to prepare a cell suspension having a concentration of 5×10^7 cells/mL. This suspension was transplanted in an amount of 0.01 mL to a subcutaneous part of the right axilla of each of male ddY mice each weighing 20±1 g.
A test compound was dissolved in physiological saline containing polyoxyethylene sorbitan monolaurate. At 24 hours after the tumor transplant, 0.2 mL of the solution was intravenously administered to the tail of each of a group of five mice.

[2] = tested on: HeLa S3 cells; assay: HeLa S3 Cell Growth Inhibition Test; type: cell-based
Description: In each well of a 96-well microtiter plate was placed 0.1 mL of HeLa S3 cells having a concentration of 8×10^3 cells/mL and prepared in an MEM culture medium containing 10% fetal bovine serum and 2 mM glutamine. After the cells were incubated overnight at 37° C. in a carbon dioxide incubator, a test compound suitably diluted with a medium was added to the wells in an amount of 0.05 mL for each well. The cells were incubated at 37° C. for 72 hours in a carbon dioxide incubator. After the culture supernatant was removed, 0.1 mL of a culture medium containing 0.02% Neutral Red was added to each well. The cells were then incubated at 37° C. for 1 hour in a carbon dioxide incubator to dye the cells. After the culture supernatant was removed, each residue was rinsed once with physiological saline and the pigment was extracted with 0.001 N hydrochloric acid/30% ethanol. The absorbance at 550 nm of each extract was measured with a microplate reader. The drug concentration required for the 50% inhibition of cell growth, which is referred to as IC50, was calculated by comparing the absorbance for untreated cells with those for cells treated with the drug in known concentrations.

[3] = read-out: T/C (tumor volume ratio treated/control)
[4] = Homo sapiens, HeLa S3, 72 h, read-out: IC50, HeLa S3 cell growth inhibition, HeLa S3, 72 hours incubation, Neutral Red
[5] = 16 mg/kg i.v. once, 24 hours after transplant, tumor volume on day 7, read-out: T/C (tumor volume ratio treated/control)
[6] = Homo sapiens, HeLa S3, 72 h, HeLa S3, 72 hours incubation, Neutral Red, read-out: IC50, HeLa S3 cell growth inhibition
[7] = Homo sapiens, HeLa S3, 72 hours incubation, Neutral Red, read-out: IC50, HeLa S3 cell growth inhibition
[8] = 8.0 mg/kg i.v. once, 24 hours after transplant, tumor volume on day 7, read-out: T/C (tumor volume ratio treated/control)

C/C1=C\C(OC2CCCCO2)C(=O)/C=C/C=C\c2csc(n2)C(C)N2C(=O)CC(C(C)(O)C(=O)SCc3oc(=O)oc3COC(=O)CN(C)C)(CC1)[S+]2[O-] (stereo not shown) [Compound 159]
response vs control in vivo at 32 mg/kg [1, 3]: 33%

CC1=CC(O)C(=O)C=CC=Cc2csc(n2)C(C)N2C(=O)CC(C(C)(O)C(=O)SCOC(=O)CO)(CC1)[S+]2[O-] (stereo not shown) [Compound 14]
response vs control in vivo at 2 mg/kg [1, 3]: 44%
pIC50 [2, 4]: 6.42

COCCOCCOCCOCC(=O)OCSC(=O)C(C)(O)C12CC/C(C)=C/C(O)C(=O)/C=C/C=C\c3csc(n3)C(C)N(C(=O)C1)[S+]2[O-] (stereo not shown) [Compound 147]
response vs control in vivo at 2 mg/kg [1, 3]: 43%

COCCOCCOCCOCCOCCOCC(=O)OCSC(=O)C(C)(O)C12CC/C(C)=C/C(O)C(=O)/C=C/C=C\c3csc(n3)C(C)N(C(=O)C1)[S+]2[O-] (stereo not shown) [Compound 37]
response vs control in vivo at 8 mg/kg [1, 3]: 36%

CC1=CC(OC2CCCCO2)C(=O)C=CC=Cc2csc(n2)C(C)N2C(=O)CC(C(C)(O)C(=O)SCOC(=O)c3ccccc3)(CC1)[S+]2[O-] (stereo not shown) [Compound 7]
response vs control in vivo at 4 mg/kg [1, 3]: 23%
pIC50 [2, 4]: 7.30

CC1=C(CSC(=O)C(C)(O)C23CC/C(C)=C/C(OC4CCCCO4)C(=O)/C=C/C=C\c4csc(n4)C(C)N(C(=O)C2)[S+]3[O-])C(=O)OC(C)(C)O1 (stereo not shown) [Compound 123]
response vs control in vivo at 16 mg/kg [1, 5]: 14%
pIC50 [2, 6]: 6.22

C/C1=C\C(O)C(=O)/C=C/C=C\c2csc(n2)C(C)N2C(=O)CC(C(C)(O)C(=O)SCOC(=O)CCCNC(=O)C3(C)COC(C)(C)OC3)(CC1)[S+]2[O-] (stereo not shown) [Compound 138]
response vs control in vivo at 4 mg/kg [1, 3]: 34%

C/C1=C\C(OC2CCCCO2)C(=O)/C=C/C=C\c2csc(n2)C(C)N2C(=O)CC(C(C)(O)C(=O)SCc3oc(=O)oc3CO)(CC1)[S+]2[O-] (stereo not shown) [Compound 87]
response vs control in vivo at 16 mg/kg [1, 3]: 40%
pIC50 [2, 4]: 7.48

CC1=CC(O)C(=O)C=CC=Cc2csc(n2)C(C)N2C(=O)CC(C(C)(O)C(=O)SCOC(=O)C3CCC(C(=O)O)CC3)(CC1)[S+]2[O-] (stereo not shown) [Compound 11]
response vs control in vivo at 4 mg/kg [1, 3]: 48%
pIC50 ([2]; Homo sapiens, HeLa S3, 72 h, read-out: IC50, HeLa S3 cell growth inhibition, footnote *: Value after 72 hours of drug treatment): 7.00

C/C1=C\C(O)C(=O)/C=C/C=C\c2csc(n2)C(C)N2C(=O)CC(C(C)(O)C(=O)SCc3oc(=O)oc3CO[C@H]3C[C@H](O)[C@@H](O)[C@H](C)O3)(CC1)[S+]2[O-] (stereo partly shown) [Compound 155]
response vs control in vivo at 8 mg/kg [1, 3]: 37%

C/C1=C\C(O)C(=O)/C=C/C=C\c2csc(n2)C(C)N2C(=O)CC(C(C)(O)C(=O)SCc3oc(=O)oc3CO[C@@H]3C[C@@H](O)[C@H](O)[C@@H](CO)O3)(CC1)[S+]2[O-] (stereo partly shown) [Compound 152]
response vs control in vivo at 16 mg/kg [1, 3]: 17%

C/C1=C\C(O)C(=O)/C=C/C=C\c2csc(n2)C(C)N2C(=O)CC(C(C)(O)C(=O)SCOC(=O)OCCN3CCCC3=O)(CC1)[S+]2[O-] (stereo not shown) [Compound 146]
response vs control in vivo at 4 mg/kg [1, 3]: 38%

COC(=O)[C@H](CCC(=O)OCSC(=O)C(C)(O)C12CCC(C)=CC(O)C(=O)C=CC=Cc3csc(n3)C(C)N(C(=O)C1)[S+]2[O-])NC(=O)C1(C)COC(C)(C)OC1 (stereo partly shown) [Compound 27]
response vs control in vivo at 2 mg/kg [1, 3]: 46%

CC(=O)NCC(=O)OCc1oc(=O)oc1CSC(=O)C(C)(O)C12CC/C(C)=C/C(OC3CCCCO3)C(=O)/C=C/C=C\c3csc(n3)C(C)N(C(=O)C1)[S+]2[O-] (stereo not shown) [Compound 98]
response vs control in vivo at 16 mg/kg [1, 5]: 40%
pIC50 [2, 6]: 7.15

CCOC(=O)N1CCC2(CC1)OC(=O)C(CSC(=O)C(C)(O)C13CC/C(C)=C/C(OC4CCCCO4)C(=O)/C=C/C=C\c4csc(n4)C(C)N(C(=O)C1)[S+]3[O-])=C(C)O2 (stereo not shown) [Compound 127]
response vs control in vivo at 16 mg/kg [1, 5]: 29%
pIC50 [2, 7]: 7.48

C/C1=C\C(O)C(=O)/C=C/C=C\c2csc(n2)C(C)N2C(=O)CC(C(C)(O)C(=O)SCc3oc(=O)oc3COC3C[C@H](O[Si](C)(C)C(C)(C)C)[C@@H](O[Si](C)(C)C(C)(C)C)[C@H](C)O3)(CC1)[S+]2[O-] (stereo partly shown) [Compound 79]
response vs control in vivo at 8 mg/kg [1, 8]: 45%
pIC50 [2, 7]: 6.10

CC1=C(CSC(=O)C(C)(O)C23CC/C(C)=C/C(OC4CCCCO4)C(=O)/C=C/C=C\c4csc(n4)C(C)N(C(=O)C2)[S+]3[O-])C(=O)OC2(CCOCC2)O1 (stereo not shown) [Compound 125]
response vs control in vivo at 16 mg/kg [1, 5]: 43%
pIC50 [2, 6]: 7.33

C/C1=C\C(O)C(=O)/C=C/C=C\c2csc(n2)C(C)N2C(=O)CC(C(C)(O)C(=O)SCc3oc(=O)oc3CO[C@@H]3C[C@H](O)[C@@H](O)[C@H](C)O3)(CC1)[S+]2[O-] (stereo partly shown) [Compound 154]
response vs control in vivo at 4 mg/kg [1, 3]: 40%

C/C1=C\C(OC2CCCCO2)C(=O)/C=C/C=C\c2csc(n2)C(C)N2C(=O)CC(C(C)(O)C(=O)SCOC(=O)CCNC(=O)[C@H]3O[C@@H]4OC(C)(C)O[C@@H]4[C@H]4OC(C)(C)O[C@H]43)(CC1)[S+]2[O-] (stereo partly shown) [Compound 45]
response vs control in vivo at 8 mg/kg [1, 3]: 45%
pIC50 [2, 4]: 7.36

C=C(CSC(=O)C(C)(O)C12CC/C(C)=C/C(OC3CCCCO3)C(=O)/C=C/C=C\c3csc(n3)C(C)N(C(=O)C1)[S+]2[O-])C(=O)OC (stereo not shown) [Compound 112]
response vs control in vivo at 8 mg/kg [1, 8]: 24%
pIC50 [2, 6]: 7.19

COC1(OC2/C=C(\C)CCC3(C(C)(O)C(=O)SCC4=C(C)OC(C)(C)OC4=O)CC(=O)N(C(C)c4nc(cs4)/C=C\C=C\C2=O)[S+]3[O-])CCOCC1 (stereo not shown) [Compound 122]
response vs control in vivo at 16 mg/kg [1, 5]: 37%
pIC50 [2, 6]: 5.74

CC1=CC(O)C(=O)C=CC=Cc2csc(n2)C(C)N2C(=O)CC(C(C)(O)C(=O)SCOC(=O)C(C)(C)NC(=O)OCc3ccccc3)(CC1)[S+]2[O-] (stereo not shown) [Compound 3]
response vs control in vivo at 16 mg/kg [1, 5]: 21%
pIC50 [2, 6]: 6.89

COC(=O)NCC(=O)OCSC(=O)C(C)(O)C12CC/C(C)=C/C(OC3CCCCO3)C(=O)/C=C/C=C\c3csc(n3)C(C)N(C(=O)C1)[S+]2[O-] (single isomer, unassigned) [Compound 41]
response vs control in vivo at 4 mg/kg ([1]; 4.0 mg/kg i.v. once, 24 hours after transplant, tumor volume on day 7, read-out: T/C (tumor volume ratio treated/control)): 32%
pIC50 ([2]; HeLa S3, 72 hours incubation, Neutral Red, read-out: IC50, HeLa S3 cell growth inhibition): 8.40

CC(=O)Oc1ccc(C(=O)OCSC(=O)C(C)(O)C23CC/C(C)=C/C(OC4CCCCO4)C(=O)/C=C/C=C\c4csc(n4)C(C)N(C(=O)C2)[S+]3[O-])cc1 (stereo not shown) [Compound 53]
response vs control in vivo at 8 mg/kg [1, 8]: 50%
pIC50 [2, 6]: 7.46

COC(=O)[C@H](CCC(=O)OCSC(=O)C(C)(O)C12CC/C(C)=C/C(OC3CCCCO3)C(=O)/C=C/C=C\c3csc(n3)C(C)N(C(=O)C1)[S+]2[O-])NC(=O)[C@@]12O[C@H]3COC(C)(C)O[C@H]3[C@@H]1OC(C)(C)O2 (single isomer, unassigned) [Compound 50]
response vs control in vivo at 8 mg/kg [1, 3]: 41%
pIC50 [2, 4]: 7.80

COC(=O)[C@H](CCC(=O)OCSC(=O)C(C)(O)C12CCC(C)=CC(O)C(=O)C=CC=Cc3csc(n3)C(C)N(C(=O)C1)[S+]2[O-])NC(=O)[C@H]1O[C@@H]2OC(C)(C)O[C@@H]2[C@H]2OC(C)(C)O[C@H]21 (stereo partly shown) [Compound 25]
response vs control in vivo at 16 mg/kg [1, 5]: 30%
pIC50 [2, 6]: 6.10

C/C1=C\C(OC2CCCCO2)C(=O)/C=C/C=C\c2csc(n2)C(C)N2C(=O)CC(C(C)(O)C(=O)SCOC(=O)CCNC(=O)[C@@]34O[C@@H](CO)[C@@H](O)[C@@H]3OC(C)(C)O4)(CC1)[S+]2[O-] (stereo partly shown) [Compound 64]
response vs control in vivo at 8 mg/kg [1, 3]: 43%
pIC50 [2, 4]: 7.46

CC1=CC(OC2CCCCO2)C(=O)C=CC=Cc2csc(n2)C(C)N2C(=O)CC(C(C)(O)C(=O)SCOC(=O)CO)(CC1)[S+]2[O-] (stereo not shown) [Compound 15]
response vs control in vivo at 1 mg/kg [1, 3]: 45%
pIC50 [2, 4]: 7.85

COCCOCCOCCOC(=O)OCSC(=O)C(C)(O)C12CC/C(C)=C/C(O)C(=O)/C=C/C=C\c3csc(n3)C(C)N(C(=O)C1)[S+]2[O-] (stereo not shown) [Compound 149]
response vs control in vivo at 8 mg/kg [1, 3]: 42%

C/C1=C\C(O)C(=O)/C=C/C=C\c2csc(n2)C(C)N2C(=O)CC(C(C)(O)C(=O)SCOC(=O)CCCNC(=O)[C@@]34O[C@@H](CO)[C@@H](O)[C@@H]3OC(C)(C)O4)(CC1)[S+]2[O-] (stereo partly shown) [Compound 141]
response vs control in vivo at 4 mg/kg [1, 3]: 31%
